# PubChem BioAssay (NCI)
#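 Grown in 96-well plates, cells were treated for 48 hours with each compound at five concentrations. Insufficient inhibition: endpoint recorded as highest concentration tested. TGI: concentration producing complete growth inhibition.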
# How the values were obtained:
# Assay in all cases: growth of human tumour cells (NCI), 48 h
# [1] = system: 786-0 renal
# [2] = system: A498 renal
# [3] = system: A549 NSCLC
# [4] = system: ACHN renal
# [5] = system: BT-549 breast
# [6] = system: COLO 205 colon
# [7] = system: EKVX NSCLC
# [8] = system: HCC-2998 colon
# [9] = system: HCT-116 colon
# [10] = system: HCT-15 colon
# [11] = system: HL-60(TB) leukemia
# [12] = system: HOP-62 NSCLC
# [13] = system: HS 578T breast
# [14] = system: HT29 colon
# [15] = system: IGROV1 ovarian
# [16] = system: K-562 leukemia
# [17] = system: KM12 colon
# [18] = system: LOX IMVI melanoma
# [19] = system: M14 melanoma
# [20] = system: MALME-3M melanoma
# [21] = system: MCF7 breast
# [22] = system: MDA-MB-231 breast
# [23] = system: MDA-N
# [24] = system: MOLT-4 leukemia
# [25] = system: NCI-H23 lung
# [26] = system: NCI-H460 lung
# [27] = system: NCI-H522 lung
# [28] = system: NCI/ADR-RES ovarian
# [29] = system: OVCAR-3 ovarian
# [30] = system: OVCAR-5 ovarian
# [31] = system: OVCAR-8 ovarian
# [32] = system: PC-3 prostate
# [33] = system: RPMI-8226 leukemia
# [34] = system: SF-295 CNS
# [35] = system: SF-539 CNS
# [36] = system: SK-MEL-2 melanoma
# [37] = system: SK-MEL-28 melanoma
# [38] = system: SK-MEL-5 melanoma
# [39] = system: SN12C renal
# [40] = system: SNB-19 CNS
# [41] = system: SR leukemia
# [42] = system: SW-620 colon
# [43] = system: T-47D breast
# [44] = system: TK-10 renal
# [45] = system: U251 CNS
# [46] = system: UACC-257 melanoma
# [47] = system: UACC-62 melanoma
# [48] = system: UO-31 renal
# [49] = system: CAKI-1 renal
# [50] = system: CCRF-CEM leukemia
# [51] = system: DU-145 prostate
# [52] = system: HOP-92 NSCLC
# [53] = system: MDA-MB-435
# [54] = system: NCI-H226 lung
# [55] = system: OVCAR-4 ovarian
# [56] = system: RXF 393 renal
# [57] = system: SF-268 CNS
# [58] = system: SK-OV-3 ovarian
# [59] = system: SNB-75 CNS
smiles,measurement,setting,value
C=CC(=O)Nc1ccc(NC(=O)C=C)c2c1C(=O)c1ccccc1C2=O,TGI,[1],84.6 µM
same,TGI,[2],> 100 µM
same,TGI,[3],> 100 µM
same,TGI,[4],> 100 µM
same,TGI,[5],> 100 µM
same,TGI,[6],> 100 µM
same,TGI,[7],> 100 µM
same,TGI,[8],> 100 µM
same,TGI,[9],> 100 µM
same,TGI,[10],> 100 µM
same,TGI,[11],24.7 µM
same,TGI,[12],> 100 µM
same,TGI,[13],> 100 µM
same,TGI,[14],> 100 µM
same,TGI,[15],> 100 µM
same,TGI,[16],48.4 µM
same,TGI,[17],29.1 µM
same,TGI,[18],47.4 µM
same,TGI,[19],> 100 µM
same,TGI,[20],> 100 µM
same,TGI,[21],57.4 µM
same,TGI,[22],> 100 µM
same,TGI,[23],> 100 µM
same,TGI,[24],96.4 µM
same,TGI,[25],> 100 µM
same,TGI,[26],> 100 µM
same,TGI,[27],34.6 µM
same,TGI,[28],> 100 µM
same,TGI,[29],> 100 µM
same,TGI,[30],> 100 µM
same,TGI,[31],> 100 µM
same,TGI,[32],> 100 µM
same,TGI,[33],21.2 µM
same,TGI,[34],49.8 µM
same,TGI,[35],70.9 µM
same,TGI,[36],> 100 µM
same,TGI,[37],> 100 µM
same,TGI,[38],> 100 µM
same,TGI,[39],> 100 µM
same,TGI,[40],> 100 µM
same,TGI,[41],> 100 µM
same,TGI,[42],> 100 µM
same,TGI,[43],> 100 µM
same,TGI,[44],62.5 µM
same,TGI,[45],> 100 µM
same,TGI,[46],> 100 µM
same,TGI,[47],90.8 µM
same,TGI,[48],> 100 µM
CC(=O)OCCn1cnc2c(NCC=C(C)C)ncnc21,TGI,[1],> 100 µM
same,TGI,[2],> 100 µM
same,TGI,[3],> 100 µM
same,TGI,[4],> 100 µM
same,TGI,[49],> 100 µM
same,TGI,[50],> 100 µM
same,TGI,[6],> 100 µM
same,TGI,[51],> 100 µM
same,TGI,[7],> 100 µM
same,TGI,[9],> 100 µM
same,TGI,[11],> 100 µM
same,TGI,[12],> 100 µM
same,TGI,[52],> 100 µM
same,TGI,[13],> 100 µM
same,TGI,[14],> 100 µM
same,TGI,[15],> 100 µM
same,TGI,[16],> 100 µM
same,TGI,[17],> 100 µM
same,TGI,[18],> 100 µM
same,TGI,[19],> 100 µM
same,TGI,[20],> 100 µM
same,TGI,[21],> 100 µM
same,TGI,[22],> 100 µM
same,TGI,[53],> 100 µM
same,TGI,[23],> 100 µM
same,TGI,[24],> 100 µM
same,TGI,[54],> 100 µM
same,TGI,[25],> 100 µM
same,TGI,[26],> 100 µM
same,TGI,[27],> 100 µM
same,TGI,[28],> 100 µM
same,TGI,[29],> 100 µM
same,TGI,[55],> 100 µM
same,TGI,[30],> 100 µM
same,TGI,[31],> 100 µM
same,TGI,[32],> 100 µM
same,TGI,[33],> 100 µM
same,TGI,[56],> 100 µM
same,TGI,[57],> 100 µM
same,TGI,[34],> 100 µM
same,TGI,[35],> 100 µM
same,TGI,[37],> 100 µM
same,TGI,[38],> 100 µM
same,TGI,[58],> 100 µM
same,TGI,[39],> 100 µM
same,TGI,[40],> 100 µM
same,TGI,[59],> 100 µM
same,TGI,[41],> 100 µM
same,TGI,[42],> 100 µM
same,TGI,[43],> 100 µM
same,TGI,[44],> 100 µM
same,TGI,[46],> 100 µM
same,TGI,[48],> 100 µM
O=c1c2cc(-c3ccccc3)cnc2sn1-c1ccc(Br)cc1,TGI,[1],> 100 µM
same,TGI,[2],> 100 µM
same,TGI,[3],> 100 µM
same,TGI,[4],> 100 µM
same,TGI,[5],> 100 µM
same,TGI,[49],> 100 µM
same,TGI,[50],> 100 µM
same,TGI,[6],> 100 µM
same,TGI,[51],> 100 µM
same,TGI,[7],> 100 µM
same,TGI,[8],> 100 µM
same,TGI,[9],> 100 µM
same,TGI,[10],> 100 µM
same,TGI,[11],> 100 µM
same,TGI,[12],> 100 µM
same,TGI,[52],> 100 µM
same,TGI,[14],> 100 µM
same,TGI,[15],> 100 µM
same,TGI,[16],> 100 µM
same,TGI,[17],> 100 µM
same,TGI,[19],> 100 µM
same,TGI,[20],> 100 µM
same,TGI,[21],> 100 µM
same,TGI,[22],> 100 µM
same,TGI,[53],> 100 µM
same,TGI,[23],> 100 µM
same,TGI,[24],> 100 µM
same,TGI,[54],> 100 µM
same,TGI,[25],> 100 µM
same,TGI,[26],> 100 µM
same,TGI,[27],> 100 µM
same,TGI,[28],> 100 µM
same,TGI,[29],> 100 µM
same,TGI,[55],> 100 µM
same,TGI,[30],> 100 µM
same,TGI,[31],> 100 µM
same,TGI,[32],> 100 µM
same,TGI,[33],> 100 µM
same,TGI,[56],> 100 µM
same,TGI,[57],> 100 µM
same,TGI,[34],> 100 µM
same,TGI,[35],> 100 µM
same,TGI,[36],> 100 µM
same,TGI,[37],> 100 µM
same,TGI,[58],> 100 µM
same,TGI,[39],> 100 µM
same,TGI,[40],> 100 µM
same,TGI,[59],> 100 µM
same,TGI,[41],> 100 µM
same,TGI,[42],> 100 µM
same,TGI,[43],> 100 µM
same,TGI,[45],> 100 µM
same,TGI,[46],> 100 µM
same,TGI,[47],> 100 µM
same,TGI,[48],> 100 µM
O=C1/C(=C\c2ccc(Cl)cc2)N=C(c2ccccc2)N1n1c(=O)cn[nH]c1=S,TGI,[1],39.7 µM
same,TGI,[2],> 100 µM
same,TGI,[3],> 100 µM
same,TGI,[4],> 100 µM
same,TGI,[5],92.3 µM
same,TGI,[49],> 100 µM
same,TGI,[50],15.7 µM
same,TGI,[6],> 100 µM
same,TGI,[51],58.3 µM
same,TGI,[7],> 100 µM
same,TGI,[8],> 100 µM
same,TGI,[9],> 100 µM
same,TGI,[10],69.5 µM
same,TGI,[11],64.6 µM
same,TGI,[12],> 100 µM
same,TGI,[14],> 100 µM
same,TGI,[15],66.1 µM
same,TGI,[16],54.9 µM
same,TGI,[17],> 100 µM
same,TGI,[18],65.3 µM
same,TGI,[19],> 100 µM
same,TGI,[20],> 100 µM
same,TGI,[21],35.4 µM
same,TGI,[53],87 µM
same,TGI,[23],> 100 µM
same,TGI,[24],53.3 µM
same,TGI,[25],43.6 µM
same,TGI,[26],> 100 µM
same,TGI,[27],37.2 µM
same,TGI,[28],> 100 µM
same,TGI,[29],76.2 µM
same,TGI,[55],69 µM
same,TGI,[30],> 100 µM
same,TGI,[31],45.8 µM
same,TGI,[32],> 100 µM
same,TGI,[33],62.1 µM
same,TGI,[34],> 100 µM
same,TGI,[35],> 100 µM
same,TGI,[36],> 100 µM
same,TGI,[37],> 100 µM
same,TGI,[38],55.3 µM
same,TGI,[58],> 100 µM
same,TGI,[40],> 100 µM
same,TGI,[41],72.6 µM
same,TGI,[42],44.4 µM
same,TGI,[43],28.6 µM
same,TGI,[45],37.7 µM
same,TGI,[46],> 100 µM
same,TGI,[47],> 100 µM
same,TGI,[48],> 100 µM
